The target in assay [1] is T1, Full length ERK3 (NanoLuc fusion) (Homo sapiens, UniProt Q16659).
T1 construct: Full length ERK3 was cloned into pFC32K (Promega, Madison, WI, USA); expressed in transfected cells; host or cells: HEK293T
The assay can be described thus: Cell-based NanoBRET assay (tracer displacement) in HEK293T cells. The following applies: for IC50: Figure 2F, HEK293T cells, 0.25 µM Tracer K5, 2 h, averaged over two replicates; for remaining activity at 5 µM / remaining activity at 10 µM: HEK-293T, 2 h, Table S3, ratio to DMSO control, HEK293T; for remaining activity at 5 µM: single dose 5 µM, read-out: Norm.BRET 5 µM; for remaining activity at 10 µM: single dose 10 µM, read-out: Norm.BRET 10 µM. Here is the method: Full length ERK3 was cloned into pFC32K (Promega, Madison, WI, USA) for the expression of an […] NanoLuc fusion, and the plasmid was transfected into HEK293T cells cultured in DMEM (Gibco) supplemented with 10% fetal bovine serum (Gibco) and penicillin/streptamycin (Gibco, Thermo Fisher Scientific, Waltham, MA, USA). NanoBRET assays were performed using protocol published previously. Briefly, after transfection and 20 h incubation, cells were harvested and subsequently resuspended in OptiMEM (Gibco). […] BRET luminescence (450 nm for donor emission and 610 nm for BRET signal) was measured using PHERAstar FSX plate reader (BMG Labtech, Ortenberg, Germany). Milli-BRET units (mBU) were calculated as a ratio between the BRET signal and the overall measured luminescence. A dose–response fitting was applied, and the corresponding IC50 values were calculated in Prism software. For the single concentration screening, the normalized BRET values were calculated from the ratio between the BRET signals of the tested inhibitor and that of the DMSO control.

The target in assay [2] is T2, ERK3 kinase domain (Homo sapiens, UniProt Q16659).
T2 construct: The kinase domain of ERK3 (M9-I327) was subcloned into pNIC28–Bsa4; His6 (N, cleaved yes); made in house; host or cells: E. coli (co-expressed with lambda phosphatase)
Kind of assay: Melting temperature assay (differential scanning fluorimetry, DSF). It counts as binding. How it is done:
The ERK3 kinase domain at 2 µM in 10 mM HEPES pH 7.5 and 500 mM NaCl was mixed with 10 µM inhibitors and SyPRO Orange at 1:1000 dilution. After 10 min incubation at room temperature, the fluorescence signal, which increases upon the temperature-dependent unfolding of ERK3 protein, was measured using Mx3005p real-time PCR machine (Stratagene, San Diego, CA, USA). The ∆Tm shifts were calculated using protocol described previously.

The target of assay [3] is T2, ERK3 kinase domain. The assay can be described thus: Isothermal titration calorimetry (ITC). The class given is binding. The following applies: for Kd: Figure 2E, 15 °C, averaged over two replicates, read-out: ITC dissociation constant Kd. Here is the method:
The integrated heat of titration was calculated and fitted into an independent binding model using NanoAnalyzer software. Thermodynamic parameters, the dissociation constant (Kd), and stoichiometry (n) were an average over duplicates.

In assay [4] the target is T2, ERK3 kinase domain. The assay can be described thus: Mass spectrometry analyses of covalent adducts (intact mass, chymotrypsin digestion). The class given is binding. The settings on record: kinase and inhibitor at 1:1 ratio, 30 min, room temperature. Here is the method: The protein was purified using C8 stage tips, and the intact mass was analysed using LC-ESI TOF (Agilient, Santa Clara, CA, USA) and Bioconfirm software (Agilient). Chymotrypsin digestion followed by mass spectrometry analysis was performed to identify the residue that forms a covalent bond with the inhibitors. […] The protein was subsequently precipitated by 50% […], and the resulting pellet was washed twice with cold acetone. Chymotrypsin (Sigma Aldrich) digestion was performed in 50 mM (NH4)2CO3 overnight at 37 °C. The solution after proteolysis were spotted in quadruplets onto the 4-chloro-α-cyanocinnamic acid matrix (Sigma Aldrich; 3 mg mL^−1 in TFA-acidified 50% acetonitrile), and the m/z ratios were analysed on a Thermo Fisher MALDI-LTQ Orbitrap XL spectrometer.

Where [5] appears, read: Table S2, 10 µM inhibitors, read-out: ΔTm Initial Screen.
[6] abbreviates: Table S2, average of two repeats ± standard deviation, read-out: ΔTm Follow Up.

This note sets out measurements from article PMC7663056, “Crystal Structure and Inhibitor Identifications Reveal Targeting Opportunity for the Atypical MAPK Kinase ERK3” (International Journal of Molecular Sciences, 2020).

Read-outs that look alike come from different tables or passages of the source.

T1 sequence (Q16659 whole entry, the tested form may be a part): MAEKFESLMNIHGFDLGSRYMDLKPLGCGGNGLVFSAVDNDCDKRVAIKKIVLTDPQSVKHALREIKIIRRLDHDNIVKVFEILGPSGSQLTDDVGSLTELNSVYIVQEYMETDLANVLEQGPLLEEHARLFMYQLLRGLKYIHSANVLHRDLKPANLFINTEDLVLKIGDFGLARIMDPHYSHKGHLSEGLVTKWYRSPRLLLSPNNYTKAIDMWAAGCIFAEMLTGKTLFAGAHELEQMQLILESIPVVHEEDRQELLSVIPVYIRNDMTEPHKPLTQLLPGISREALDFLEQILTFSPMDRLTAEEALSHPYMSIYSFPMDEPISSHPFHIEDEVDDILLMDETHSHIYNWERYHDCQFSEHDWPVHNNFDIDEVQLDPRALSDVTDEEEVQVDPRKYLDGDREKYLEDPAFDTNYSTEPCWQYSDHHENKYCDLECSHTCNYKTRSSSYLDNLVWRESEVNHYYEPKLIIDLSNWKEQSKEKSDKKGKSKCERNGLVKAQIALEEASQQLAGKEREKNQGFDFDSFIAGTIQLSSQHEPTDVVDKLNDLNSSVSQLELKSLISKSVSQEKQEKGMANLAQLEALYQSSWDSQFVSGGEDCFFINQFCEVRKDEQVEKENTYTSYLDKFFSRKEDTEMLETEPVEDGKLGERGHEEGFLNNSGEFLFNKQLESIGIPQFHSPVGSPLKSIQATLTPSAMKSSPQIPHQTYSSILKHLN
T2 sequence (Q16659 9-327): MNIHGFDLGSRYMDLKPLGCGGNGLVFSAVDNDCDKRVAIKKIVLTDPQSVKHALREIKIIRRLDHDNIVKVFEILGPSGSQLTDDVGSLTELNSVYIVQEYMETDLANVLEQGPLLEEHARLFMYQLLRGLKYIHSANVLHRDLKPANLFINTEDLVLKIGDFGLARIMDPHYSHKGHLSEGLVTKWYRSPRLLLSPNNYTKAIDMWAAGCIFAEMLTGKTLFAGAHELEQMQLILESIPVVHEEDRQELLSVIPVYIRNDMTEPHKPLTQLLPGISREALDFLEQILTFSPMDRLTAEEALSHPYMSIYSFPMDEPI

In assay [1], `CN1CCN(c2ccc(Nc3nccc(-c4cnn5ncccc45)n3)cc2C#N)CC1` [CAF078] returned an IC50 of 9 ± 1 nM. Besides, the “ΔTm (melting temperature shift)” value on ERK3 kinase domain [2] (DSF screen of 1454 kinase inhibitors) is 3.1–3.8 °C. For the same molecule, the ΔTm at 10 µM on ERK3 kinase domain [2] (setting [5]) was found to be 3.83 °C; at ERK3 kinase domain [2] (setting [6]), 3.3 ± 0.2 °C. For the same molecule, the “ITC dissociation constant (Kd), in words” value at ERK3 kinase domain [3] is “low nanomolar affinities”. For the same molecule, the Kd on ERK3 kinase domain [3] came out at 44 ± 26 nM.

For `O=C(c1ccc(Nc2nccc(-c3cc4ccccc4s3)n2)cc1)N1CCC(N2CCCC2)CC1` [IKK-16], in assay [1], the IC50 is 116 ± 26 nM, the remaining activity at 5 µM amounted to 28.8 ± 2.4% and the remaining activity at 10 µM stood at 19.6 ± 5.7%. The ΔTm at 10 µM at ERK3 kinase domain [2] (setting [5]) is 1.67 °C. The ΔTm at 10 µM at ERK3 kinase domain [2] (setting [6]) was 1.7 ± 0.4 °C. Further, the Kd on ERK3 kinase domain [3] was 1850 ± 915 nM.

For `CN(C)C/C=C/C(=O)Nc1cccc(C(=O)Nc2ccc(Nc3nccc(-c4cccnc4)n3)cc2)c1` [JNK-IN-7], the “covalent adduct formation (intact mass shift)” value on ERK3 kinase domain [4] is reported as “covalent formation, albeit only partially”. For the same molecule, in assay [1], the IC50 turned out to be 112 ± 23 nM.

Turning to `CNC(=O)c1nn(C)c2c1C(C)(C)Cc1cnc(Nc3ccc(N4CCN(C)CC4)cc3)nc1-2` [Milciclib], in assay [1], the IC50 was determined as 27 ± 5 nM, the remaining activity at 5 µM was 40.9% and the remaining activity at 10 µM is 26.8 ± 0.5%. Further, on ERK3 kinase domain [2] (setting [5]), the ΔTm at 10 µM is 2.11 °C. Besides, the ΔTm at 10 µM at ERK3 kinase domain [2] (setting [6]) was 2.5 ± 0.3 °C. For the same molecule, the Kd at ERK3 kinase domain [3] came to 245 ± 60 nM.

As to `Nc1cccc(-c2cc3c(Oc4cccc(O)c4)ncnc3[nH]2)c1` [TWS119], in assay [1], the IC50 came out at 601 ± 29 nM, the remaining activity at 5 µM was found to be 54.2 ± 6.4% and the remaining activity at 10 µM was 28.1 ± 5.5%. For the same molecule, on ERK3 kinase domain [2] (Table S3, DSF assay values shown for comparison, read-out: ΔTm ERK3), the ΔTm at 10 µM was 0.6 ± 0.2 °C. On ERK3 kinase domain [3], the Kd worked out at 1930 ± 182 nM.
